Among the data in a melting point compilation (Tetko et al.; mined from patent text by program, amines drawn as free bases though some values may be those of a salt) are melting point values, retold here.

The term melting point denotes the temperature of the solid-liquid transition.

Where only a bound is given, the exact number is not on record here.

The molecule `NC(=O)c1sc2nc(N3CCC(NCC(O)c4cccc(F)c4)CC3)cc(C(F)(F)F)c2c1N` (stereo not given) registered a melting point of 215 °C.
`CON1CCC(=Cc2nc(C(C)(C)C)c(O)c(C(C)(C)C)n2)C1=O` yielded a melting point of 184 to 186 °C.
Then `CCCCc1nn(-c2ccc([N+](=O)[O-])cc2C(F)(F)F)c(=O)n1Cc1ccc(-c2ccccc2S(N)(=O)=O)cc1`, with 218 to 220 °C; and `N=C(NO)c1ccc(-c2ccc(-c3nc4cc(C(=N)NO)ccc4[nH]3)c(F)c2)cc1`, with 281 to 283 °C.
Next, `CC(O)CCCCCCCc1ccc(O)c(O)c1` (stereo not given): 58 to 61 °C; `Cc1n[nH]c2c(O)ncnc12`: 340 °C.
Next, `Oc1nc2ccc(F)cc2n2c(C(F)(F)F)nnc12`: 298 to 302 °C; `COc1cc(C)cc(OC)c1N(CCC(C)C)C(=O)CNC(=O)OC(C)(C)C`: 132 °C; `C[Si](C)(C)C#Cc1c2ccccc2c2ccc3c(C#C[Si](C)(C)C)c4ccccc4c4ccc1c2c34`: 286 to 288 °C.
With `CC(=O)n1c(C(F)(F)F)nc(-c2ccc(S(C)(=O)=O)cc2)c1-c1cc(C)cc(Cl)c1`, the melting point was 257 °C.
Next, `COC(=O)C(O)(c1cc(F)cc(F)c1)c1cc(F)cc(F)c1`: 113 to 114 °C; `O=C1Cc2cc(NCCCc3ccccc3)ccc2N1`: 120 to 122 °C.
Next, `COC(=O)OCC1OC(n2cc(C)c(=O)[nH]c2=O)C(OC(=O)c2cccc(C(F)(F)F)c2)C1OS(C)(=O)=O` (stereo not given): 94 to 96 °C; `C=C(Cc1ccc(-c2cccc3cncn23)cc1)C(=O)O`: 171 to 172 °C.
Next, `CC(=O)NCC1CN(c2ccc(N3CCN(C4=NCCS4)CC3)c(F)c2)C(=O)O1` (stereo not given): 219 to 223 °C.
In turn, `CCOCCn1cc2c(C3C(=O)Nc4ccc(Cl)cc43)nc(NCC(C)O)nc2n1` (stereo not given) had a melting point of more than 300 °C.
Then `Cc1ccc(Cn2c(NC3CCNCC3)nc3cnccc32)o1`, with 186 °C.
Then `COC(=O)c1cnc(C)n1C`, with 38 to 40 °C; and `COC(=O)C=C(C)c1ccc(CC(C)(C)NCC(O)c2ccccc2)cc1` (stereo not given), with 98 to 103 °C.
Next, `N#Cc1ccc2c(c1)CCC=C2c1ccns1`: 77 to 81 °C.
`COc1cc2c(cc1OC)CN(CCCCNC(=O)c1cc(Br)cc(OC)c1OCCF)CC2` had a melting point of 127 to 129 °C.
Then `CNC(=NCCSSCc1nc[nH]c1C)NC#N`, with 137 to 142 °C; and `CCCNC(=O)CCCc1ccc2c(c1)c(Cc1ccc(C(=O)O)cc1OC)cn2CCC`, with 143 to 144 °C; and `CCCc1c(C(=O)C(C)C)c2ccc(C(N)=O)cc2n1C(=O)c1ccccc1Cl`, with 125 to 126 °C.
Then `O=C(CN1CCOCC1)Nc1ccn(-c2ccc(Cl)c(Cl)c2)n1`, with 125 to 127 °C.
Next, `O=C(O)Cc1cccc(Oc2ccccc2O)c1O`: 91 to 93 °C; `Cc1nnnn1/C=C\SC(c1ccccc1)(c1ccccc1)c1ccccc1`: 208 to 210 °C.
Molecule `CCCCCCCCCCNC(=O)c1ccc(N)cc1` displayed a melting point of 117 to 119 °C.
Next, `COc1ccc(S(=O)(=O)Nc2ccccc2NC(=O)c2ccccc2C)cc1`: 129 to 130 °C; `Oc1c(Cc2c[nH]cn2)cccc1C1=NCCN1`: 261 °C.
Next, `O=C1COc2ccc(CN3CCN(c4ccccc4)CC3)cc2N1`: 207 to 209 °C.
In the case of `COC(=O)c1cncs1`, the melting point is 68 °C.
Next, `CC(C)CN(Cc1ccccc1)c1ncnc2c1ncn2C1CCCCO1` (stereo not given): 93 to 95 °C.
Then `COC(=O)c1cc(C#CC2(c3ccc(OC)c(OC4CCCC4)c3)CCC(=O)CC2)cc(C(=O)OC)c1`, with 134 to 135 °C; and `CC(=Cc1cc(O)c(O)c([N+](=O)[O-])c1)C(C)O` (stereo not given), with 102 to 104 °C; and `CC(C)(C)OC(=O)NCC(=O)OCCCNc1cccc2c1C(=O)c1ccccc1C2=O`, with 84 °C.
Next, `N#Cc1ccccc1C(=O)c1ccc(S)cc1`: 102 °C.
On to `COC(=O)c1ccc(-c2nc3cc([N+](=O)[O-])c([N+](=O)[O-])cc3[nH]2)cc1`, for which the melting point is 239 to 240 °C.
Next, `CCC1SC(=O)N(Cc2ccc(NC(=O)C(F)(F)F)cc2)N=C1c1ccc(OC)c(OC)c1` (stereo not given): 124 °C; `Cn1ncc(S(N)(=O)=O)c1C1=NOCCO1`: 126 to 130 °C.
Next, `CC(=O)[C@@H]1C(=O)N(C(=O)OC(C)(C)C)[C@@H]1c1ccccc1`: 63 to 64 °C; `CCCc1c(OCCCCCOc2c(C(C)=O)ccc(OCC(=O)O)c2CCC)ccc(C(C)=O)c1O`: 86 to 89 °C; `CCOCCCc1ccc(Oc2ccc3c(c2)C=C(C(=O)Nc2ccc(CN(C)C4CCOCC4)cc2)CCS3(=O)=O)cc1`: 156 to 157 °C.
Turning to `CC1c2ccccc2-c2ccccc2N1S(=O)(=O)c1ccc(O)c(C(=O)O)c1` (stereo not given), the melting point was in the range of 225 to 230 °C.
Then `N#Cc1ccc(-c2cn(-c3ccc(Br)cc3)cn2)cc1`, with 178 to 185 °C; and `COC1CC(C(C)CCCC(C)C)C2(C)CCC3C(=C12)CCC1CC(O)CCC13C` (stereo not given), with 127 to 128 °C; and `O=C(O)Cc1c(C(=O)c2ccc(Cl)cc2)[nH]c2cc(F)ccc12`, with 214 °C.
Then `Cc1ncnn1-c1ccc(C#N)c(F)c1`, with 89 to 90 °C.
On to `O=C(Nc1c(C(O)(C(F)(F)F)C(F)(F)F)ccc2ccccc12)C1CCC1`, for which the melting point is 185 to 186 °C.
As for `Cc1sc(-c2ccccc2F)nc1O`, the melting point is 159 to 160 °C.
Next, `Nc1sc2c(c1C(=O)c1ccc3c(c1)Cc1ccccc1-3)CCC2`: 176 to 182 °C; `COC(=O)c1cc(Cl)c(N)c2c1OCCCN2`: 92 to 95 °C.
Turning to `CCCCCc1cnc(-c2ccc(SC)cc2)nc1`, the melting point was found to be 52 °C.
Then `CN1CCN(c2nn(S(=O)(=O)c3ccccc3)c3cc(F)ccc23)CC1`, with 159 to 161 °C.
Next, `COC(=O)c1cccc2c(C)c(C)oc12`: 54.5 to 55.5 °C; `CC(=O)c1csc(S(N)(=O)=O)c1`: 170 to 172 °C; `COC(=O)CCCCCCCCCCCNC(=O)NC12CC3CC(CC(C3)C1)C2`: 75 °C.
Then `COc1cccc(OCCCCC(=O)O)c1C=O`, with 99 to 101 °C; and `NC(=O)c1cc(-c2c[nH]nc2-c2ccc(F)cc2)ccn1`, with 230 to 231 °C; and `O=C(NS(=O)(=O)NCCc1cccs1)OCc1ccccc1`, with 129 to 131 °C.
`Cc1ccc(S(=O)(=O)C2=CC3CCC2N3C(=O)OC(C)(C)C)cc1` (stereo not given) returned a melting point of 144 to 147 °C.
In turn, `Cc1cc2c(c(N3CC[C@H](N(C)C)C3)c1-c1ccccc1)OC(C#N)(C(=O)N1CCCCC1)N2` (stereo not given in full) yielded a melting point of 170 to 173 °C.
Then `N#CCCNC(=S)C1=CC(CF)(CF)Oc2ccc(C(F)(F)F)cc21`, with 105 to 106 °C; and `CCN(CC)CCNC(=O)c1cc(Cl)c(N)cc1OCC(C)O` (stereo not given), with 149 to 150 °C; and `COc1ccc2c(ccn2-c2ccc(Br)cc2)c1`, with 90 to 91 °C.
Take `Cc1c(Nc2c(C#N)cnc3sc(CCC(=O)N4CCCC4)cc23)ccc2[nH]ccc12`: the melting point was determined as 175 °C.
Then `O=C(O)Cc1ccc(Oc2ccccc2CC(=O)O)cc1`, with 150 to 152 °C.
`CNc1nc(C)c(-c2cn3ccccc3n2)s1`: the melting point was 228 to 229 °C.
Then `CCOC(=O)C=Cc1cnn2c(N(C)c3ccccc3)ncnc12`, with 139 °C; and `Cc1cc(SCC(=O)NCCc2ccccc2)nc(N)n1`, with 114 to 121 °C; and `CC1(C)CCC(C)(C)c2cc(C(C)(O)C(=O)O)ccc21` (stereo not given), with 149 to 150 °C.
Next, `Fc1cccc(F)c1-c1nc(/C=C/c2ccc(-c3ccc(OC(F)(F)F)cc3)cc2)no1`: 122 to 123 °C; `Cc1cccc(-n2c(-c3cc(-c4ccncc4)c(N4CCOCC4)s3)nc3ccccc3c2=O)c1`: 230 to 232 °C; `CC(=O)OCc1cnc2c(NC(=O)c3c(Cl)cccc3Cl)cccc2c1`: 199 to 201 °C.
Then `Cc1ccc(S(=O)(=O)N(CCN(CC(=O)Cl)S(=O)(=O)c2ccc(C)cc2)CCN(CC(=O)Cl)S(=O)(=O)c2ccc(C)cc2)cc1`, with 136 to 137 °C; and `OCC(CO)Oc1cc(-c2ccccc2)on1`, with 117 to 119 °C.
For the molecule `C=C1CCC2C3CCc4cc(O)ccc4C3CCC12C` (stereo not given), the melting point is 134 to 136 °C.
Then `O=c1[nH]cccc1Cc1ccccc1`, with 158 to 160 °C.
Next, `Cc1oc(-c2ccccc2)nc1CCOc1ccc(C[C@H](NC(=O)C=Cc2ccc(F)c(F)c2)C(=O)O)cc1`: 204 to 206 °C; `CC(C)(C)OC(=O)NCCCCCC(=O)Nc1cccnc1`: 96 to 98 °C; `O=C(O)Cc1c(C(=O)c2ccccc2)[nH]c2ccccc12`: 194 to 196 °C.
Then `CCOC(=O)CCc1oc(-n2cncn2)nc1-c1ccc(Cl)cc1`, with 99 to 100 °C; and `COc1ccc(-c2ccnc3c(C(=O)c4cccs4)cnn23)c(OC)c1`, with 146 to 148 °C; and `O=S(=O)(c1ccc(Cl)cc1)N1c2ccccc2CCC1c1ccc(CN2CCSCC2)cc1` (stereo not given), with 134 to 136 °C.
The molecule `COc1ccc2c(c1)c(O)c(C(=O)Nc1ccccc1)c(=O)n2C` yielded a melting point of 199 to 200 °C.
Next, `N#CCc1ccccc1Sc1ccc(Cl)c(Cl)c1`: 48 to 49 °C.
In turn, `COc1ccc(O)c(C(=O)c2oc3ccc(Cl)cc3c2N)c1` showed a melting point of 202 to 205 °C.
Next, `CSc1ccc(-n2cnc3ccc(-c4nnc(C5CC5)o4)cc32)cc1`: 198 to 199 °C; `CC1CC(=O)NN=C1c1ccc(NCCN)c([N+](=O)[O-])c1` (stereo not given): 162 to 164 °C.
Then `O=C1Cc2cc3c(cc2C(c2ccccc2)=NN1c1ccc([N+](=O)[O-])cc1)OCO3`, with more than 200 °C.
